Laboratory results taken from ChEMBL document CHEMBL1125293 (J Med Chem, 1992).

target: T1, Substance-P receptor (Rattus norvegicus, UniProt P14600); format: cell membranes, Membrane
T1 sequence (P14600 whole entry): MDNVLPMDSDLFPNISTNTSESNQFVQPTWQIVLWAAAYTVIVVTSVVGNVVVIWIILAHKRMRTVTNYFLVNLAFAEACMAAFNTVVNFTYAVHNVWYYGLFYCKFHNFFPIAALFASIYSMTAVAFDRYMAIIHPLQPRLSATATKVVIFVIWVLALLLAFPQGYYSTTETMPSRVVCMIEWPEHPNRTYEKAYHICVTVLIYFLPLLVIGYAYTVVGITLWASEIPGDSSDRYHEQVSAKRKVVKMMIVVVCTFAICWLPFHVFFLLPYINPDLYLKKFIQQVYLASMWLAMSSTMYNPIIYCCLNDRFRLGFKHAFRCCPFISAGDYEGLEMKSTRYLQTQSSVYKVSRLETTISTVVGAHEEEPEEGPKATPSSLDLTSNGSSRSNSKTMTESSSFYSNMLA

Structure (SMILES) | IC50
C#C[C@]1(O)CCC2C3CC[C@H]4Cc5nc6[nH]c7ccccc7c6cc5C[C@]4(C)C3CC[C@@]21C (stereo not given in full) | > 10 µM
C[C@]12Cc3cn4c(nc3CC1CCC1C2CC[C@@]2(C)C1CC[C@]2(C)O)nc1ccccc14 (stereo not given in full) | 0.2 µM
C#C[C@]1(O)CCC2C3CC[C@H]4Cc5nc6cc7ccccc7n6cc5C[C@]4(C)C3CC[C@@]21C (stereo not given in full) | > 10 µM
COC(=O)CCC(C)[C@H]1CCC2C3C(C[C@H](O)[C@@]21C)[C@@]1(C)Cc2cn4c(nc2CC1C[C@H]3O)nc1ccccc14 (stereo not given in full) | > 2.5 µM
Cc1cc(C)n2c(n1)nc1ccccc12 | > 10 µM
C=C[C@]1(O)CCC2C3CCC4Cc5nc6nc7ccccc7n6cc5C[C@]4(C)C3CC[C@@]21C (stereo not given in full) | 0.086 µM
C[C@]12Cc3cn4c(nc3CC1CCC1C2CC[C@@]2(C)C1CC[C@@H]2O)nc1ccccc14 (stereo not given in full) | 0.22 µM
C[C@@]12CCCC1C1CCC3Cc4nc5nc6ccccc6n5cc4C[C@]3(C)C1CC2 (stereo not given in full) | > 10 µM
C#C[C@]1(O)CCC2C3CC[C@H]4Cc5nc6nc7cc8ccccc8cc7n6cc5C[C@]4(C)C3CC[C@@]21C (stereo not given in full) | 0.32 µM
C=CC1=CCCC2Cc3nc4nc5ccccc5n4cc3C[C@]12C (stereo not given in full) | > 10 µM
C#C[C@]1(OC)CCC2C3CCC4Cc5nc6nc7ccccc7n6cc5C[C@]4(C)C3CC[C@@]21C (stereo not given in full) | > 10 µM
CC(CCC(=O)O)[C@H]1CCC2C3C(C[C@H](O)[C@@]21C)[C@@]1(C)Cc2cn4c(nc2CC1C[C@H]3O)nc1ccccc14 (stereo not given in full) | > 10 µM

target: T1, Substance-P receptor; assay: Inhibition of [125]I-Bolton Hunter Substance P([125]I-BHSP) binding to Tachykinin receptor 1 from rat forebrain membranes.; format: cell membranes, Membrane

Structure (SMILES) | IC50
C[C@]12Cc3cn4c(nc3CC1CCC1C2CC[C@]2(C)C(=O)CCC12)nc1ccccc14 (stereo not given in full) | > 10 µM
CC#C[C@]1(O)CCC2C3CCC4Cc5nc6nc7ccccc7n6cc5C[C@]4(C)C3CC[C@@]21C (stereo not given in full) | 0.18 µM
COC(=O)[C@H]1CCC2C3CCC4Cc5nc6nc7ccccc7n6cc5C[C@]4(C)C3CC[C@@]21C (stereo not given in full) | > 10 µM
C#CC[C@]1(O)CCC2C3CCC4Cc5nc6nc7ccccc7n6cc5C[C@]4(C)C3CC[C@@]21C (stereo not given in full) | 0.32 µM
C[C@]12Cc3cn4c(nc3CC1CCC1C2CC[C@@]2(C)C1CC[C@@]2(O)c1ccccc1)nc1ccccc14 (stereo not given in full) | > 10 µM
c1ccc2c(c1)nc1nc3c(cn12)CCCC3 | > 10 µM
CC(C)CCCC(C)[C@@H]1CCC2C3CCC4Cc5nc6nc7ccccc7n6cc5C[C@]4(C)C3CC[C@@]21C (stereo not given in full) | > 10 µM
C[C@]12CCC3C(CC[C@@H]4Cc5nc6nc7ccccc7n6cc5C[C@]34C)C1CC[C@@H]2O (stereo not given in full) | > 10 µM
